Data from paper PMC6704710, “Preclinical evaluation of 3D185, a novel potent inhibitor of FGFR1/2/3 and CSF-1R, in FGFR-dependent and macrophage-dominant cancer models” (Journal of Experimental & Clinical Cancer Research : CR, 2019).

What was measured:
Assay in all cases: Eurofins kinase panel
Format in all cases: biochemical
Settings in all cases: read-out: Inhibition rate (%)
MST1(h) = target: T1, MST1(h) (Homo sapiens, UniProt Q13043)
T1 construct: purchased Eurofins (KinaseProfiler)
T1 sequence (Q13043 1-487): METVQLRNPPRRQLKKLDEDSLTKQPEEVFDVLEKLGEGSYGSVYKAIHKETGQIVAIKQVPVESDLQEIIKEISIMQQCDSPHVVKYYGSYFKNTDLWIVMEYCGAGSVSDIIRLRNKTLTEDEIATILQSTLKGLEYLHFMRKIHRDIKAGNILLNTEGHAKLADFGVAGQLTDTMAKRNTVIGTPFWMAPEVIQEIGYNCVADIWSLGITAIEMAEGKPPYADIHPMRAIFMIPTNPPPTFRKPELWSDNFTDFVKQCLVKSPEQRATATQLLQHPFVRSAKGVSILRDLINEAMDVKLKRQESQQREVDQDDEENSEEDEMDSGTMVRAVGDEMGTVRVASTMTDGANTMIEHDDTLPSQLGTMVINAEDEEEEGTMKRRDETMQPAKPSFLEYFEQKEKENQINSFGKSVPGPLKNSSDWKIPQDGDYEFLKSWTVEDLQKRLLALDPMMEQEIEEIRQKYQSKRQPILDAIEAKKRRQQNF

NUAK2(h) = target: T2, NUAK2(h) (Homo sapiens, UniProt Q9H093)
T2 construct: purchased Eurofins (KinaseProfiler)
T2 sequence (Q9H093 1-628): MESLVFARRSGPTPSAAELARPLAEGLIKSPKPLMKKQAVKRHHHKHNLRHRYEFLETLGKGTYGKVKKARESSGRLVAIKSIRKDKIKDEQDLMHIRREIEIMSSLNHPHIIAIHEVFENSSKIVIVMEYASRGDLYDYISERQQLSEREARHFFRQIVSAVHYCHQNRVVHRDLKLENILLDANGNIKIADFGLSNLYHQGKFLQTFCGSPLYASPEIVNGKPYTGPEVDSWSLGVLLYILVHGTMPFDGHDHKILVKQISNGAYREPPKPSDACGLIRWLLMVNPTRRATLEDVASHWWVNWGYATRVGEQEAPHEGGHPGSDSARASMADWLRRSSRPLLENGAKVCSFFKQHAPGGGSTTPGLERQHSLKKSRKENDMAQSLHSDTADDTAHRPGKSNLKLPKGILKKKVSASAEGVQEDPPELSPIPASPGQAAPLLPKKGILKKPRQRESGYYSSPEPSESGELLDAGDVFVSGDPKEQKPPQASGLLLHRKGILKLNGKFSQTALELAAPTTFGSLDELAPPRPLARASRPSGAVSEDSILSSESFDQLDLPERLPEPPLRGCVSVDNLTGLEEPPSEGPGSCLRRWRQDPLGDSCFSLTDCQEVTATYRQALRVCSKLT

MARK4(h) = target: T3, MARK4(h) (Homo sapiens, UniProt Q96L34)
T3 construct: purchased Eurofins (KinaseProfiler)
T3 sequence (Q96L34 1-752): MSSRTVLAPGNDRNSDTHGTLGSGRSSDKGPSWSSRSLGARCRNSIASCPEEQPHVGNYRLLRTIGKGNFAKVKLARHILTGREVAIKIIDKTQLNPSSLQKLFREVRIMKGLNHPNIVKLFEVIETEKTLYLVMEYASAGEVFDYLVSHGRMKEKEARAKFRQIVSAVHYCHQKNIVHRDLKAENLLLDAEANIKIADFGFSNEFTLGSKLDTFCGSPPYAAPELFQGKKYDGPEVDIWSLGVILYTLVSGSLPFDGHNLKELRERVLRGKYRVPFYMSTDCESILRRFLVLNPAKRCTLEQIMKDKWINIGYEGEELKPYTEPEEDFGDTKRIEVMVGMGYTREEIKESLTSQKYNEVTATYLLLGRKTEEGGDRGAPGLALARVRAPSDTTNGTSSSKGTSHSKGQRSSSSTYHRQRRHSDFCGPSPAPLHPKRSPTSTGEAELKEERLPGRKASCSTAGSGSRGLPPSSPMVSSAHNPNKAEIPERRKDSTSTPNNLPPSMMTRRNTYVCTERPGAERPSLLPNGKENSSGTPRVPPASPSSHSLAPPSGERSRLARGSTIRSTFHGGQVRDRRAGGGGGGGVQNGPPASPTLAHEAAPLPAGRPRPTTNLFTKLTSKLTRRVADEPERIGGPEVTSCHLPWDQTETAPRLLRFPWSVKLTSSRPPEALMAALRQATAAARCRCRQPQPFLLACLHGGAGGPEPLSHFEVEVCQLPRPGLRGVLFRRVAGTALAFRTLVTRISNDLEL

VRK2(h) = target: T4, VRK2(h) (Homo sapiens, UniProt Q86Y07)
T4 construct: purchased Eurofins (KinaseProfiler)

Cdc7/cyclinB1(h) = target: T5, Cdc7/cyclinB1(h) (Homo sapiens, UniProt O00311)
T5 construct: purchased Eurofins (KinaseProfiler)
T5 sequence (O00311 whole entry): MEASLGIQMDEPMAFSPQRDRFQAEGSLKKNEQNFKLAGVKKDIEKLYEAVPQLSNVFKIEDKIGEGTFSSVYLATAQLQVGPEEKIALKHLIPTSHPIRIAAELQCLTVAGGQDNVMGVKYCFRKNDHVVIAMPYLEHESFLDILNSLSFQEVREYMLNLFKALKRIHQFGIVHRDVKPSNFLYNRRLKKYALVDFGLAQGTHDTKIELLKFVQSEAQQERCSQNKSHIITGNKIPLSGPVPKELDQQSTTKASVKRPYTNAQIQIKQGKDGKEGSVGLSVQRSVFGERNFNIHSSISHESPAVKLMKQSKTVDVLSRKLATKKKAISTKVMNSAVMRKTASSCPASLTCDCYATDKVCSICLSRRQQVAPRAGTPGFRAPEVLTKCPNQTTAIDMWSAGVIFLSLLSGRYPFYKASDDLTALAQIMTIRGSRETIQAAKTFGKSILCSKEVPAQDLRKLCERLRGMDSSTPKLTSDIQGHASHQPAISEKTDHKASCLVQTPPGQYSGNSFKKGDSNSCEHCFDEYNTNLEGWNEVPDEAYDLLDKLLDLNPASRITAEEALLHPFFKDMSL

T4 sequence (Q86Y07 whole entry): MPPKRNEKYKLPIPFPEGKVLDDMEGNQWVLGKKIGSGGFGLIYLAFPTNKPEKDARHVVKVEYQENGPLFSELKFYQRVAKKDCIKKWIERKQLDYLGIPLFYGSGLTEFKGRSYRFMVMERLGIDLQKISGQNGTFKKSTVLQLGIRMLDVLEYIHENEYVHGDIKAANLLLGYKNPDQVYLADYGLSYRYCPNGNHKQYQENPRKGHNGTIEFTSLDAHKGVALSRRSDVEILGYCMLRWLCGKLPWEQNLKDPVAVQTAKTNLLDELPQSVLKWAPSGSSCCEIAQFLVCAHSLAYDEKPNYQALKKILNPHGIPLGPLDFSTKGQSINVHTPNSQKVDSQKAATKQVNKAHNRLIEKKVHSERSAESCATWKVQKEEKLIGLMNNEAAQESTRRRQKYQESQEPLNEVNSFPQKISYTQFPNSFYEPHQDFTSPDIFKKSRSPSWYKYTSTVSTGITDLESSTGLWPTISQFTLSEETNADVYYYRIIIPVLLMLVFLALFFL

With COc1cc(OC)c(Cl)c(-c2ccc3c(NC(=O)c4ccc(N5CCNC(C)(C)C5)cc4)n[nH]c3n2)c1Cl [3D185] the inhibition at 0.01 µM (MST1(h); 10 nM) was 2%, the inhibition at 0.1 µM (MST1(h); 100 nM) was 11% and the inhibition at 1 µM (MST1(h); 1000 nM) was 32%. The inhibition at 0.01 µM (NUAK2(h); 10 nM) was -1%, the inhibition at 0.1 µM (NUAK2(h); 100 nM) was -1% and the inhibition at 1 µM (NUAK2(h); 1000 nM) was 0%. For the same compound, the inhibition at 0.01 µM (MARK4(h); 10 nM) was 3%, the inhibition at 0.1 µM (MARK4(h); 100 nM) was 5% and the inhibition at 1 µM (MARK4(h); 1000 nM) was -2%. It also gave an inhibition at 0.01 µM (VRK2(h); 10 nM) of 4%, an inhibition at 0.1 µM (VRK2(h); 100 nM) of 11% and an inhibition at 1 µM (VRK2(h); 1000 nM) of 17%. It also gave an inhibition at 0.01 µM (Cdc7/cyclinB1(h); 10 nM) of 5%, an inhibition at 0.1 µM (Cdc7/cyclinB1(h); 100 nM) of -5% and an inhibition at 1 µM (Cdc7/cyclinB1(h); 1000 nM) of 8%.
